Measurements as given in ChEMBL document CHEMBL1150821, “A new metabolite from the marine bacterium Vibrio angustum S14” (2001).
Active and inactive are the calls of the source. No cut-off for these calls is given here.

Key:
[1] = test system: Agrobacterium tumefaciens; experiment: Induction of acylated homoserine lactone system-mediated traI-lacZ reporter gene expression in Agrobacterium tumefaciens A136 at 2.5 ug; format: functional, organism-based
Vibrio harveyi = experiment: Induction of bioluminescence in Vibrio harveyi UNSW at 10 uM relative to control; format: functional

For `CCCC(=O)CC(=O)N[C@H]1CCOC1=O`, the Activity [1] was “Active”.

In the case of `CC(O)CC(=O)N[C@H]1CCOC1=O` (some centres undefined), the “fold change (FC)” value (Vibrio harveyi) is reported as 128.

With `CCCCOC(OCC(C)C)C(C)(C)O` (centres undefined) the Activity [1] was “Active” and the “fold change (FC)” value (Vibrio harveyi) was 32.
